Test results reported in the NIST ThermoML archive (doi:10.1021/je7003758).

Test: xn = mol fraction of the nth substance listed
Settings: 298.15 K, Liquid

ClCCCl [1,2-dichloroethane] + CN1CCCC1=O
mass density [kg/m3]
Settings	x2 = 0.0993	x2 = 0.2025	x2 = 0.3012	x2 = 0.4029	x2 = 0.4975	x2 = 0.5832	x2 = 0.7037	x2 = 0.7984	x2 = 0.9029
100 kPa	1220.4	1195.3	1172.3	1149.2	1128.3	1110	1085.1	1066.3	1046.2
500 kPa	1220.7	1195.6	1172.6	1149.4	1128.5	1110.2	1085.4	1066.5	1046.5
1000 kPa	1221.2	1196	1173	1149.8	1128.9	1110.5	1085.7	1066.8	1046.7
1500 kPa	1221.7	1196.5	1173.4	1150.2	1129.2	1110.9	1086	1067.1	1047
2000 kPa	1222.1	1196.9	1173.7	1150.6	1129.6	1111.2	1086.3	1067.4	1047.3
2500 kPa	1222.6	1197.3	1174.2	1150.9	1129.9	1111.5	1086.6	1067.7	1047.6
2900 kPa	–	–	1174.5	–	–	–	–	–	–
3000 kPa	1223	1197.7	–	1151.3	1130.3	1111.9	1086.9	1068	1047.8
3400 kPa	–	–	–	1151.6	–	–	–	–	–
3500 kPa	1223.5	1198.1	1174.9	–	1130.6	–	1087.2	1068.3	1048.1
3600 kPa	–	–	–	–	–	1112.2	–	–	–
4000 kPa	1223.9	1198.5	1175.3	1152	1131	1112.5	1087.6	1068.6	1048.4
4500 kPa	1224.4	1198.9	1175.7	–	1131.3	1112.8	1087.8	1068.8	1048.6
4600 kPa	–	–	–	1152.3	–	–	–	–	–
5000 kPa	1224.8	1199.3	1176.1	1152.8	1131.6	1113.2	1088.1	1069.1	1048.9
5500 kPa	1225.2	1199.8	1176.5	1153.1	1131.9	1113.5	1088.4	1069.4	1049.2
6000 kPa	1225.7	1200.2	1176.9	1153.5	1132.4	1113.8	1088.7	1069.7	1049.4
6500 kPa	1226.1	1200.6	1177.2	1153.9	1132.7	1114.1	1089	1070	1049.7
6900 kPa	–	–	–	–	–	1114.4	–	–	–
7000 kPa	1226.5	1201	1177.6	1154.2	1133	–	1089.3	1070.3	1050
7500 kPa	1227	1201.4	1178	1154.6	1133.3	1114.8	1089.6	1070.5	1050.2
7900 kPa	–	–	–	–	1133.7	–	–	–	–
8000 kPa	1227.4	1201.8	1178.4	1154.9	–	1115	1089.9	1070.9	1050.6
8500 kPa	1227.8	1202.2	1178.8	1155.3	1134.1	1115.4	1090.2	1071.1	1050.8
8900 kPa	–	1202.6	–	–	–	–	–	–	–
9000 kPa	1228.2	–	1179.2	1155.6	1134.4	1115.7	1090.5	1071.3	1051.1
9500 kPa	1228.6	1203.1	1179.6	1156	1134.7	1116	1090.8	1071.6	1051.3
9900 kPa	–	–	1180	–	1135	–	–	–	–
10000 kPa	1229.2	1203.6	–	1156.4	–	1116.4	1091.1	1072	1051.7
10500 kPa	1229.6	1203.9	1180.4	1156.7	1135.4	1116.7	1091.4	1072.2	1051.9
10900 kPa	–	–	1180.7	–	–	1117	–	–	–
11000 kPa	1230	1204.3	–	1157.1	1135.7	–	1091.7	1072.5	1052.2
11500 kPa	1230.4	1204.6	1181.1	1157.5	1136.1	1117.4	1092	1072.8	1052.4
11900 kPa	–	–	–	–	1136.4	–	–	–	–
12000 kPa	1230.8	1205.1	1181.5	1157.8	–	1117.7	1092.3	1073	1052.7
12500 kPa	1231.3	1205.5	1181.9	1158.2	1136.8	1118	1092.6	1073.3	1053
13000 kPa	1231.7	1205.9	1182.2	1158.5	1137.1	1118.3	1092.8	1073.6	1053.2
13400 kPa	–	–	–	–	1137.4	–	–	–	–
13500 kPa	1232.1	1206.2	1182.6	1158.8	–	1118.5	1093.2	1073.9	1053.5
14000 kPa	1232.5	1206.6	1183	1159.2	1137.7	1118.9	1093.4	1074.2	1053.8
14500 kPa	1232.9	1207	–	1159.5	1138	1119.2	1093.7	1074.4	1054.1
14600 kPa	–	–	1183.4	–	–	–	–	–	–
15000 kPa	1233.3	1207.4	1183.7	1159.8	1138.4	1119.4	1094	1074.8	1054.3
15400 kPa	–	–	–	–	–	1119.8	–	–	–
15500 kPa	1233.7	1207.8	1184.1	1160.2	1138.7	–	1094.3	1075	1054.6
15900 kPa	–	1208.2	–	–	–	1120	–	–	–
16000 kPa	1234.2	–	1184.4	1160.5	1139	–	1094.6	1075.3	1054.8
16500 kPa	1234.6	1208.6	1184.8	1160.9	1139.3	1120.4	1094.8	1075.6	1055.1
17000 kPa	1235	–	1185.1	1161.2	1139.7	1120.7	1095.1	1075.9	1055.3
17100 kPa	–	1209	–	–	–	–	–	–	–
17400 kPa	–	–	1185.4	–	–	–	–	–	–
17500 kPa	1235.4	1209.4	–	1161.6	1140	1121	1095.4	1076.1	1055.6
17900 kPa	–	–	–	1161.8	–	–	–	–	–
18000 kPa	1235.8	1209.8	1185.8	–	1140.3	1121.2	1095.7	1076.4	1055.8
18400 kPa	–	1210.2	–	1162.2	–	–	–	–	–
18500 kPa	1236.2	–	1186.1	–	1140.6	1121.5	1096	1076.7	1056.1
19000 kPa	1236.6	1210.6	1186.6	1162.6	1140.9	1121.9	1096.3	1077	1056.4
19400 kPa	–	–	–	–	1141.3	–	–	–	–
19500 kPa	1237	1211	1186.9	1163	–	1122.2	1096.6	1077.2	1056.6
20000 kPa	1237.5	1211.4	1187.4	1163.4	1141.9	1122.6	1096.9	1077.5	1057.1
